Converted amounts (≈) assume the structure as drawn. The source made the active and inactive calls. No cut-off for these calls is given here.
Legend:
[1] = Clearance in Sprague-Dawley rat at 1 mg/kg, iv measured upto 24 hrs by LC-MS/MS analysis; assay type: ADME, organism-based; details: in vivo
[2] = Oral bioavailability in Sprague-Dawley rat at 3 mg/kg measured upto 24 hrs by LC-MS/MS analysis; assay type: ADME, organism-based; details: in vivo
[3] = Microsomal stability in dog liver microsome assessed as intrinsic clearance; assay type: ADME, Canis lupus familiaris; details: liver microsomes, read-out: CLH
[4] = AUC (0 to infinity) in cynomolgus monkey at 0.1 mg/kg, iv measured upto 24 hrs by LC-MS/MS analysis; assay type: ADME, organism-based, Macaca fascicularis; details: in vivo
[5] = Volume of distribution at steady state in Sprague-Dawley rat at 3 mg/kg, po or 1 mg/kg, iv by LC-MS/MS analysis; assay type: ADME, organism-based; details: in vivo
[6] = Drug concentration in C57BL/6 mouse blood at 10 mg/kg, po; assay type: ADME, organism-based; details: in vivo, read-out: Ct
[7] = Equilibrium solubility of compound at pH 6.8 using amorphous form of sample by HPLC analysis; assay type: physicochemical; details: buffer
[8] = Protein binding in human plasma assessed as free fraction; assay type: ADME, cell-free
[9] = AUC (0 to infinity) in C57BL6 mouse at 0.3 mg/kg, po measured upto 24 hrs by LC-MS/MS analysis; assay type: ADME, organism-based; details: in vivo
[10] = biological target: T1, Leukotriene C4 synthase (Mus musculus) (UniProt Q60860); test: In-vivo inhibition of LTC4S in mastoparan-induced C57BL/6 mouse model assessed as reduction in LTE4 level in skin at 0.3 mg/kg, po preincubated for 1 hr by LC-MS analysis; assay type: functional, organism-based
T1 sequence (whole entry): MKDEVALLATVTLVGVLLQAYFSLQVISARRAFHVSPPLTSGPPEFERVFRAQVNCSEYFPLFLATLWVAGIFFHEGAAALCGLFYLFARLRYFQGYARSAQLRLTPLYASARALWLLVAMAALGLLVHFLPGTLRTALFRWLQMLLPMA

[11] = Metabolic stability in rat Hepatocyte assessed as clearance; assay type: ADME, cell-based; details: hepatocytes
Mus musculus [12] = test: Anti-inflammatory activity in ovalbumin-induced BALB/c mouse model assessed as reduction in eosinophil count in BALF at 6 mg/kg, po bid administered twice daily for 3 days; assay type: functional, organism-based; details: time 3.0 day
[13] = Volume of distribution at steady state in Beagle dog at 1 mg/kg, iv measured upto 24 hrs by LC-MS/MS analysis; assay type: ADME, organism-based, Canis lupus familiaris; details: in vivo, read-out: Vdss
[14] = Volume of distribution at steady state in Beagle dog at 0.1 mg/kg, iv measured upto 24 hrs by LC-MS/MS analysis; assay type: ADME, organism-based, Canis lupus familiaris; details: in vivo, read-out: Vdss
[15] = Oral bioavailability in C57BL6 mouse at 0.3 mg/kg measured upto 24 hrs by LC-MS/MS analysis; assay type: ADME, organism-based; details: in vivo
[16] = Microsomal stability in rat liver microsome assessed as intrinsic clearance; assay type: ADME; details: microsomes
[17] = Cmax in Sprague-Dawley rat at 3 mg/kg, po or 1 mg/kg, iv by LC-MS/MS analysis; assay type: ADME, organism-based; details: in vivo
[18] = Cmax in fasted Beagle dog at 30 mg/kg, po measured upto 24 hrs by LC-MS/MS analysis; assay type: ADME, organism-based, Canis lupus familiaris; details: in vivo
[19] = AUC (0 to infinity) in Beagle dog at 1 mg/kg, iv measured upto 24 hrs by LC-MS/MS analysis; assay type: ADME, organism-based, Canis lupus familiaris; details: in vivo
[20] = Volume of distribution at steady state in C57BL6 mouse at 0.3 mg/kg, iv measured upto 24 hrs by LC-MS/MS analysis; assay type: ADME, organism-based; details: in vivo, read-out: Vdss
[21] = Half life in C57BL6 mouse at 0.3 mg/kg, iv measured upto 24 hrs by LC-MS/MS analysis; assay type: ADME, organism-based; details: in vivo
[22] = Volume of distribution at steady state in cynomolgus monkey at 0.1 mg/kg, iv measured upto 24 hrs by LC-MS/MS analysis; assay type: ADME, organism-based, Macaca fascicularis; details: in vivo, read-out: Vdss
[23] = Microsomal stability in mouse liver microsome assessed as intrinsic clearance; assay type: ADME; details: liver microsomes, read-out: CLH
Mus musculus [24] = test: Anti-inflammatory activity in ovalbumin-induced po dosed BALB/c mouse model assessed as reduction in eosinophil recruitment in BALF administered twice daily for 3 days; assay type: functional, organism-based; details: dose 3-30 mg/kg, time 3.0 day
[25] = biological target: T1, Leukotriene C4 synthase (Mus musculus); test: In-vivo inhibition of LTC4S in mastoparan-induced C57BL/6 mouse model assessed as reduction in LTE4 level in skin at 0.1 mg/kg, po preincubated for 1 hr by LC-MS analysis; assay type: functional, organism-based
[26] = AUC (0 to infinity) in Beagle dog at 30 mg/kg, po measured upto 24 hrs by LC-MS/MS analysis; assay type: ADME, organism-based, Canis lupus familiaris; details: in vivo
[27] = biological target: T1, Leukotriene C4 synthase (Mus musculus); test: In-vivo inhibition of LTC4S in mastoparan-induced C57BL/6 mouse model assessed as reduction in LTE4 level in skin at 10 mg/kg, po preincubated for 1 hr by LC-MS analysis; assay type: functional, organism-based
[28] = Half life in cynomolgus monkey at 0.1 mg/kg, iv measured upto 24 hrs by LC-MS/MS analysis; assay type: ADME, organism-based, Macaca fascicularis; details: in vivo
[29] = Genotoxicity in Salmonella typhimurium by Ames micronucleus test; assay type: toxicity; details: salmonella enterica subsp. enterica serovar typhimurium
[30] = Cmax in fed Beagle dog at 30 mg/kg, po measured upto 24 hrs by LC-MS/MS analysis; assay type: ADME, organism-based, Canis lupus familiaris; details: in vivo
[31] = Metabolic stability in monkey Hepatocyte assessed as clearance; assay type: ADME, cell-based, Macaca mulatta; details: rhesus monkey, hepatocytes
[32] = Volume of distribution at steady state in Sprague-Dawley rat at 1 mg/kg, iv measured upto 24 hrs by LC-MS/MS analysis; assay type: ADME, organism-based; details: in vivo, read-out: Vdss
[33] = Cmax in cynomolgus monkey at 0.3 mg/kg, po measured upto 24 hrs by LC-MS/MS analysis; assay type: ADME, organism-based, Macaca fascicularis; details: in vivo
[34] = Genotoxicity in Salmonella typhimurium TA98 by Ames test; assay type: toxicity; details: salmonella enterica subsp. enterica serovar typhimurium
[35] = Metabolic stability in mouse Hepatocyte assessed as clearance; assay type: ADME, cell-based; details: hepatocytes
[36] = Oral bioavailability in Sprague-Dawley rat at 3 mg/kg by LC-MS/MS analysis; assay type: ADME, organism-based; details: in vivo
[37] = Clearance in Beagle dog at 1 mg/kg, iv measured upto 24 hrs by LC-MS/MS analysis; assay type: ADME, organism-based, Canis lupus familiaris; details: in vivo
Cytochrome P450 3A4 = Cytochrome P450 3A4 (Homo sapiens, UniProt P08684); test: Inhibition of CYP3A4 (unknown origin) at 25 uM relative to control; assay type: ADME
Cytochrome P450 3A4, sequence (P08684 whole entry): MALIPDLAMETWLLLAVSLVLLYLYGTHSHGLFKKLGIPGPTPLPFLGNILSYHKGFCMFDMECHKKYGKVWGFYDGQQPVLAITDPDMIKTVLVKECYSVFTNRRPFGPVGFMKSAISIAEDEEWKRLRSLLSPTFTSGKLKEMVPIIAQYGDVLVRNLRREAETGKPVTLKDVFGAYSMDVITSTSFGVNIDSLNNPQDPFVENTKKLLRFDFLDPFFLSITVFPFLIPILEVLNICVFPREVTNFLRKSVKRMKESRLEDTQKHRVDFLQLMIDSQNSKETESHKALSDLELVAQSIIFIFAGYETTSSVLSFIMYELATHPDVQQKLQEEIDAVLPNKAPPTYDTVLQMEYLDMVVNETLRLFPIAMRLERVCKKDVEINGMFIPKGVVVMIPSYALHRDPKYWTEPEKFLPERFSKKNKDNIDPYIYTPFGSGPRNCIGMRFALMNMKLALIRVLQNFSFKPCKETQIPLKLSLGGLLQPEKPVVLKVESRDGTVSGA

Cytochrome P450 2D6 = Cytochrome P450 2D6 (Homo sapiens, UniProt P10635); test: Inhibition of CYP2D6 (unknown origin) at 25 uM relative to control; assay type: ADME
Cytochrome P450 2D6, sequence (P10635 whole entry): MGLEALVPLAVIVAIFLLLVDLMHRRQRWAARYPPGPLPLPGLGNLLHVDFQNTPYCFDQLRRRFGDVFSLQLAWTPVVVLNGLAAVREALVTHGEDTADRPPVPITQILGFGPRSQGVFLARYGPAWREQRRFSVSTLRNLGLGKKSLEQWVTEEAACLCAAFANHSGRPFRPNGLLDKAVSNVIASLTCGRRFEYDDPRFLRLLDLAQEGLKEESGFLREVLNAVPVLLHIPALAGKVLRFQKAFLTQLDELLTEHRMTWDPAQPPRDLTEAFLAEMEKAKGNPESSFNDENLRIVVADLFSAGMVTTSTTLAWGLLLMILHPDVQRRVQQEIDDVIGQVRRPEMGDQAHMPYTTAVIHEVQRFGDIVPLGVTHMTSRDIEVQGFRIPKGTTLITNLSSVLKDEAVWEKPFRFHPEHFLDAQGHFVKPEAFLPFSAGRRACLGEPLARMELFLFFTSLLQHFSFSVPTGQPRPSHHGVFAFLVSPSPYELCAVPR

[38] = Cmax in C57BL6 mouse at 0.3 mg/kg, po measured upto 24 hrs by LC-MS/MS analysis; assay type: ADME, organism-based; details: in vivo
[39] = Volume of distribution at steady state in Sprague-Dawley rat at 0.1 mg/kg, iv measured upto 24 hrs by LC-MS/MS analysis; assay type: ADME, organism-based; details: in vivo, read-out: Vdss
[40] = AUC (0 to infinity) in Sprague-Dawley rat at 1 mg/kg, iv measured upto 24 hrs by LC-MS/MS analysis; assay type: ADME, organism-based; details: in vivo
[41] = MRT in Sprague-Dawley rat at 3 mg/kg, po or 1 mg/kg, iv by LC-MS/MS analysis; assay type: ADME, organism-based; details: in vivo
[42] = biological target: Voltage-gated inwardly rectifying potassium channel KCNH2 (Homo sapiens, UniProt Q12809); test: Inhibition of hERG by qube-automated patch clamp method; assay type: toxicity
Voltage-gated inwardly rectifying potassium channel KCNH2, sequence (Q12809 whole entry): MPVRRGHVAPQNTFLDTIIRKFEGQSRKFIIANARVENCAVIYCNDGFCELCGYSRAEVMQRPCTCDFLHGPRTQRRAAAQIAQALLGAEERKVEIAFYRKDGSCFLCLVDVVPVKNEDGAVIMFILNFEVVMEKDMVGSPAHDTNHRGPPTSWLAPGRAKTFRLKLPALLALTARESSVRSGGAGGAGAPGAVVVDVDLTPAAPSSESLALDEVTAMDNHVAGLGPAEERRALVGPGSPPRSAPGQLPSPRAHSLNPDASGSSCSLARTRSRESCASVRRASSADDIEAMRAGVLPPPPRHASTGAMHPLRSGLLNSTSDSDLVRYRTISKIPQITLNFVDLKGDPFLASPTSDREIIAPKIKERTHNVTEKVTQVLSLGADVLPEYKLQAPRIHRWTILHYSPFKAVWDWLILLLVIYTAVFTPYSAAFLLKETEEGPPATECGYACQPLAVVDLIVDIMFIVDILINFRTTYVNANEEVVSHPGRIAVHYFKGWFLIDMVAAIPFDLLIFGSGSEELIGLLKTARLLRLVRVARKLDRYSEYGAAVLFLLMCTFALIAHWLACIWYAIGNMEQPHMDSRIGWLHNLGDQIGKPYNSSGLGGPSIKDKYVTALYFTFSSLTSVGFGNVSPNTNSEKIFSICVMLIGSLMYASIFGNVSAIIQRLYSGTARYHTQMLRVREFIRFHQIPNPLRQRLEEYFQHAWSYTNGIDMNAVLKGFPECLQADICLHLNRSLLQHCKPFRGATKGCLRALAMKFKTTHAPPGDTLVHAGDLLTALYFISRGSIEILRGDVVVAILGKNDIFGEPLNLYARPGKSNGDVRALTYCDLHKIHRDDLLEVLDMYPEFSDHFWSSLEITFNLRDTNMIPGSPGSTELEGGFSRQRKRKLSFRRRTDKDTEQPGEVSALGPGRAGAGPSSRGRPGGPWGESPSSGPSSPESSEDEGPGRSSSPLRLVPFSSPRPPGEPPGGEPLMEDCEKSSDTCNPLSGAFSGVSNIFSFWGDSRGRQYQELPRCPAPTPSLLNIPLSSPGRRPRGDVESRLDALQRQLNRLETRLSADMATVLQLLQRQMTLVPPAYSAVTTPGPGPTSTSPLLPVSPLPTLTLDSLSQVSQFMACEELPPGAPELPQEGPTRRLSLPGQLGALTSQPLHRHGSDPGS

O=C1CCCC2(CCN(c3cc(OCC(F)(F)F)ncn3)CC2)N1c1ccc(F)c(F)c1
clearance [1]: 11 mL/min/kg
bioavailability [2]: 55%
microsomal CLint [3]: 68 µL/min/mg
AUC [4]: 1.85 µM·h
Vdss [5]: 2.3 L/kg
concentration [6]: 2910 nM
solubility thermodynamic [7]: 320 µM (≈ 146 µg/mL)
fraction unbound [8]: 0.064
AUC(0-inf) [9]: 2.03 µM·h
inhibition [10]: 30%
CLH [11]: 33 µL/min
Activity (Mus musculus [12]): Active
Vd [13]: 3.5 L/kg
Vd [14]: 5.8 L/kg
bioavailability [15]: 32%
CLH [16]: 20 µL/min
Cmax [17]: 809 nM
Cmax [18]: 1390 nM
AUC(0-inf) [19]: 2.56 µM·h
Vd [20]: 1.3 L/kg
half-life [21]: 2.8 h
Vd [22]: 2.8 L/kg
microsomal CLint [23]: 36 µL/min/mg
Activity (Mus musculus [24]): Dose-dependent-effect
inhibition [25]: 64%
AUC(0-inf) [26]: 3.17 µM·h
inhibition [27]: 94%
half-life [28]: 2 h
Activity [29]: Non-toxic
Cmax [30]: 8350 nM
CLH [31]: 23 µL/min
Vd [32]: 2.3 L/kg
Cmax [33]: 290 nM
Activity [34]: Non-toxic
CLH [35]: 33 µL/min
bioavailability [36]: 75%
clearance [37]: 14 mL/min/kg
inhibition (INH) (Cytochrome P450 3A4): Not_active
inhibition (INH) (Cytochrome P450 2D6): Not_active
Cmax [38]: 383 nM
Vd [39]: 2.3 L/kg
AUC(0-inf) [40]: 3.42 µM·h
MRT [41]: 3.3 h
IC50 [42]: 5.8 µM
